The results in this text go back to ChEMBL document CHEMBL5325488, “Discovery of SMD-3040 as a Potent and Selective SMARCA2 PROTAC Degrader with Strong in vivo Antitumor Activity” (J Med Chem, 2023).

One may read the Kd as the free concentration of one partner at which half of the binding sites on the other are occupied at equilibrium, for simple one-to-one binding. A low value points to tighter binding. In general, GI50 refers to the concentration that inhibits growth by half. As usually defined, the Emax is the maximal effect, on the per cent scale that the assay sets. As usually defined, the DC50 is the midpoint of the concentration-degradation curve.

Assay [1] addresses SWI/SNF-related matrix-associated actin-dependent regulator of chromatin subfamily A member 4 (Homo sapiens, UniProt P51532). The assay is described as follows: Binding affinity to SMARCA4 (unknown origin).
Assay [2] addresses SWI/SNF-related matrix-associated actin-dependent regulator of chromatin subfamily A member 2 (Homo sapiens, UniProt P51531). As to the kind of experiment: Binding affinity to SMARCA2 (unknown origin).
Assay [3] in a line: Antiproliferative activity against SMARCA4-deficient human NCI-H1568 cells assessed as cell growth inhibition measured after 7 days by WST-8 assay. The class given is functional. The following applies: NCI-H1568, 168 h, time 7 day. Background: Tetrazolium dyes change colour on reduction, which living cells bring about.
Assay [4] concerns A549. The assay is described as follows: Antiproliferative activity against SMARCA4-deficient human A549 cells assessed as cell growth inhibition measured after 7 days by WST-8 assay. The following applies: A549, 168 h, time 7 day. The class given is functional.
Assay [5] concerns the target T1, von Hippel-Lindau disease tumor suppressor/SWI/SNF-related matrix-associated actin-dependent regulator of chromatin subfamily A member 2 (Homo sapiens, UniProt P51531+P40337). As to the kind of experiment: PROTAC activity at VHL/C-terminal HiBiT fused SMARCA2 in human HeLa cells assessed as induction of SMARCA2 degradation by measuring maximal efficacy incubated for 24 hrs by Nano-Glo HiBiT analysis relative to control. It is filed as cell-based.
Target sequence in this assay (P40337 whole entry, looked up, the tested form may be a part): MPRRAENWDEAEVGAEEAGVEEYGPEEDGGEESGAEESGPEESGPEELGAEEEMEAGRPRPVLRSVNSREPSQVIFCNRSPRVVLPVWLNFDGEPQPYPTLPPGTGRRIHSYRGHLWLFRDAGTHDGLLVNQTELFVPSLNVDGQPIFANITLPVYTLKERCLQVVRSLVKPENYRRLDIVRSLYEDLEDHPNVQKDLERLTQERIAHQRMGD
Target sequence in this assay (P51531 whole entry, looked up, the tested form may be a part): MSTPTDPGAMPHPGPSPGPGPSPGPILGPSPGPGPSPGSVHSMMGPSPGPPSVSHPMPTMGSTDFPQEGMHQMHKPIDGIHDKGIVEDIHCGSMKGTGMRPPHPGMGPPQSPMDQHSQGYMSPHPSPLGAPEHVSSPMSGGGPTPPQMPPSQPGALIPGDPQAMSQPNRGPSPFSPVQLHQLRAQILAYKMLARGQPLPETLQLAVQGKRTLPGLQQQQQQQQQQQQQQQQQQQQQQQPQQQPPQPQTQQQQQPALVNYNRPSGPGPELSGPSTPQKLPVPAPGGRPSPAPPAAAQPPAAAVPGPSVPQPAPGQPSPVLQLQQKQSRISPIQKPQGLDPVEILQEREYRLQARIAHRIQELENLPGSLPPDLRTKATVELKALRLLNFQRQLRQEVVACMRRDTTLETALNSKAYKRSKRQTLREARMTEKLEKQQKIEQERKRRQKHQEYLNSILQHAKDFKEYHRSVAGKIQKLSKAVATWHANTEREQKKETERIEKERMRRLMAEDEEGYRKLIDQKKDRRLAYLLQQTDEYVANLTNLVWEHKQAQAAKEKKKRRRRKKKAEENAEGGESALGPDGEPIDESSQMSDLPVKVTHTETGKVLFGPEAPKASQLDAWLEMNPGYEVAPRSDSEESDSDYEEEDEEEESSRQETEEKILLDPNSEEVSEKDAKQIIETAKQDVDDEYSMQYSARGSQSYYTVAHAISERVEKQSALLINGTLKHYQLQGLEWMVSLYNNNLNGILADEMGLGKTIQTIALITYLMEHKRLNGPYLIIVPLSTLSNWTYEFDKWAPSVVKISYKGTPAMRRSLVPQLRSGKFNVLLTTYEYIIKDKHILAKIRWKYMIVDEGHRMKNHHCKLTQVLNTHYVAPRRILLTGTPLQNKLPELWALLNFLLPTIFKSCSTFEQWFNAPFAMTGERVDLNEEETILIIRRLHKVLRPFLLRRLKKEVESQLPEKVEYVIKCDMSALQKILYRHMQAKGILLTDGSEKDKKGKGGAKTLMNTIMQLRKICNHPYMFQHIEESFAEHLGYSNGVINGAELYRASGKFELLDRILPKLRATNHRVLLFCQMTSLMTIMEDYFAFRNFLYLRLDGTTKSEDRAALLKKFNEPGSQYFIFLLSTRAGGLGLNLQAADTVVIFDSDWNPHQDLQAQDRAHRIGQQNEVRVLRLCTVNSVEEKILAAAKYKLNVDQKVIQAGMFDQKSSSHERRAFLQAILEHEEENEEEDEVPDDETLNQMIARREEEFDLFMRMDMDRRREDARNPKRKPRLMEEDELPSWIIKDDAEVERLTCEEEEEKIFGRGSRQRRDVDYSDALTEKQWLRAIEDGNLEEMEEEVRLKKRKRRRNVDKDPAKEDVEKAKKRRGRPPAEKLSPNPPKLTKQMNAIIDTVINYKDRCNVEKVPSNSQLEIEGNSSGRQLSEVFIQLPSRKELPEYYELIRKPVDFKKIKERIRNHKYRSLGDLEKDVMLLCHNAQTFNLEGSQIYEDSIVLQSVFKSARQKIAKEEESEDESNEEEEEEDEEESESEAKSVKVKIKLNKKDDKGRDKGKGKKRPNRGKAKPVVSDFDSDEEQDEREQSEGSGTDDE

For assay [6], the system named is NCI-H1693. The assay is described as follows: Antiproliferative activity against SMARCA4-deficient human NCI-H1693 cells assessed as cell growth inhibition by measuring maximal efficacy measured after 7 days by WST-8 assay relative to control. It is filed as functional. The following applies: time 7 day.
Assay [7] concerns NCI-H1944. The assay is described as follows: Antiproliferative activity against SMARCA4-deficient human NCI-H1944 cells assessed as cell growth inhibition measured after 7 days by WST-8 assay. The following applies: NCI-H1944, 168 h, time 7 day. The class given is functional.
In assay [8] the target is T2, von Hippel-Lindau disease tumor suppressor/SWI/SNF-related matrix-associated actin-dependent regulator of chromatin subfamily A member 4 (Homo sapiens, UniProt P51532+P40337). As to the kind of experiment: PROTAC activity at VHL/C-terminal HiBiT fused SMARCA4 in human HeLa cells assessed as induction of SMARCA4 degradation incubated for 24 hrs by Nano-Glo HiBiT analysis. The class given is cell-based. Background: The HiBiT peptide binds its large partner to form an active luciferase.
Target sequence in this assay (P51532 whole entry, the tested form may be a part): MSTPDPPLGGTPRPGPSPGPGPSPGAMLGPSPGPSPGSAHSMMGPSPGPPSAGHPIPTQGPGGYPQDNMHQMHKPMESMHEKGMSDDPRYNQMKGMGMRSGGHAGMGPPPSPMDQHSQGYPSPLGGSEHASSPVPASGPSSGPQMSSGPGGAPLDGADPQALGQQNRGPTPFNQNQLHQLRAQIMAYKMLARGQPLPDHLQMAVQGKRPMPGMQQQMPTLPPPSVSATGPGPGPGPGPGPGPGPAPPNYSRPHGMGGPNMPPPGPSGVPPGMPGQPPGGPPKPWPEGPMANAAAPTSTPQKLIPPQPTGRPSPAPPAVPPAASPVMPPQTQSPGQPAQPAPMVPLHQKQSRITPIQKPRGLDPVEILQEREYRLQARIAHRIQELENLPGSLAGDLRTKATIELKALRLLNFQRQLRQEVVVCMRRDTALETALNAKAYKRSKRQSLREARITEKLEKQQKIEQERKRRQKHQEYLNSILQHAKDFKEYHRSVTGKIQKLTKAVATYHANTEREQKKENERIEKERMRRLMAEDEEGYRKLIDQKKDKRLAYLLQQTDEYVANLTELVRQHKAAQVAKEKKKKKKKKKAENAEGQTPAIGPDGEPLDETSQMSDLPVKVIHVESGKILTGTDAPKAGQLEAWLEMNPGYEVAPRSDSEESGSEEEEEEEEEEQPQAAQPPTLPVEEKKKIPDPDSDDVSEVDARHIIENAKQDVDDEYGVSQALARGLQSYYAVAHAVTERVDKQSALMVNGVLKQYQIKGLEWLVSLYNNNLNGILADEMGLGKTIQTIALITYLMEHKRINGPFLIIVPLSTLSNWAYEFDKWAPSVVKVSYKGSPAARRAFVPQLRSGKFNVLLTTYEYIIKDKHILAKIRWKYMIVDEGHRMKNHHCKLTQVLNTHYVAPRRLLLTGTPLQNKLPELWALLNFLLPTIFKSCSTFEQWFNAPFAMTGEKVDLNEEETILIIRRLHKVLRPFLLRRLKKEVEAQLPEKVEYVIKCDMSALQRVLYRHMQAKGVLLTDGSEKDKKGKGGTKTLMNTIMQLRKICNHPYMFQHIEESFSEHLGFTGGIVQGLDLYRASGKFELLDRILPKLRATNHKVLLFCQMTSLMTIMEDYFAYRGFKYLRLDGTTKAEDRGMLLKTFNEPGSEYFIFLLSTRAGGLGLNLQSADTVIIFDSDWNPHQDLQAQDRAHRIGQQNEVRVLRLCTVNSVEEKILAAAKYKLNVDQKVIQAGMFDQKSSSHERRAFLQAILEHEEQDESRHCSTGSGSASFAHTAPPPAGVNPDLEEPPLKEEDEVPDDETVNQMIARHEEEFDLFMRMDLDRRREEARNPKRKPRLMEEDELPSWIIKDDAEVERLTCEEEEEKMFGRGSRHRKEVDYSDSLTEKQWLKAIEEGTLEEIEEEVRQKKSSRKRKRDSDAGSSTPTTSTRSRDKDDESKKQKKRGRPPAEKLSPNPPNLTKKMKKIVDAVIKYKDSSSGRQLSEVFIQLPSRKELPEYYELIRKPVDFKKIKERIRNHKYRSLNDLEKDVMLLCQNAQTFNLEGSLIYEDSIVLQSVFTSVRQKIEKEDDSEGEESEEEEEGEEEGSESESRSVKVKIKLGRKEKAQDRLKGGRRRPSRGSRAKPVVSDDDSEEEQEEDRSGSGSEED
Target sequence in this assay (P40337 whole entry, the tested form may be a part): as the sequence (P40337 whole entry, looked up, the tested form may be a part) above

In assay [9] the test system is SK-MEL-28. The assay is described as follows: Antiproliferative activity against human SK-MEL-28 cells expressing wild-type SMARCA2 assessed as cell growth inhibition by measuring maximal efficacy measured after 7 days by WST-8 assay relative to control. It is filed as functional. The following applies: time 7 day.
Assay [10] deals with T2, von Hippel-Lindau disease tumor suppressor/SWI/SNF-related matrix-associated actin-dependent regulator of chromatin subfamily A member 4. The assay is described as follows: PROTAC activity at VHL/C-terminal HiBiT fused SMARCA4 in human HeLa cells assessed as induction of SMARCA4 degradation by measuring maximal efficacy incubated for 24 hrs by Nano-Glo HiBiT analysis relative to control. The class given is cell-based.
Target sequence in this assay (P40337 whole entry, looked up, the tested form may be a part): as above
Target sequence in this assay (P51532 whole entry, looked up, the tested form may be a part): as the sequence (P51532 whole entry, the tested form may be a part) above

The subject of assay [11] is NCI-H838. As to the kind of experiment: Antiproliferative activity against SMARCA4-deficient human NCI-H838 cells assessed as cell growth inhibition by measuring maximal efficacy measured after 7 days by WST-8 assay relative to control. The class given is functional. The note with it: time 7 day.
For assay [12], the system named is NCI-H647. As to the kind of experiment: Antiproliferative activity against human NCI-H647 cells expressing wild-type SMARCA2 assessed as cell growth inhibition by measuring maximal efficacy measured after 7 days by WST-8 assay relative to control. It is filed as functional. The following applies: time 7 day.
Assay [13] concerns the target T1, von Hippel-Lindau disease tumor suppressor/SWI/SNF-related matrix-associated actin-dependent regulator of chromatin subfamily A member 2. As to the kind of experiment: PROTAC activity at VHL/C-terminal HiBiT fused SMARCA2 in human HeLa cells assessed as induction of SMARCA2 degradation incubated for 24 hrs by Nano-Glo HiBiT analysis. The class given is cell-based.
Target sequence in this assay (P51531 whole entry, the tested form may be a part): as the sequence (P51531 whole entry, looked up, the tested form may be a part) above
Target sequence in this assay (P40337 whole entry, the tested form may be a part): as the sequence (P40337 whole entry, looked up, the tested form may be a part) above

For assay [14], the system named is SK-MEL-5. As to the kind of experiment: Antiproliferative activity against SMARCA4-deficient human SK-MEL-5 cells assessed as cell growth inhibition by measuring maximal efficacy measured after 7 days by WST-8 assay relative to control. The class given is functional. The following applies: time 7 day.
Assay [15] has as its system NCI-H1793. As to the kind of experiment: Antiproliferative activity against SMARCA4-deficient human NCI-H1793 cells assessed as cell growth inhibition by measuring maximal efficacy measured after 7 days by WST-8 assay relative to control. The class given is functional. The following applies: time 7 day.
Assay [16] relates to NCI-H1975. As to the kind of experiment: Antiproliferative activity against human NCI-H1975 cells expressing wild-type SMARCA2 assessed as cell growth inhibition measured after 7 days by WST-8 assay. It is filed as functional. The note with it: NCI-H1975, 168 h, time 7 day.
In assay [17] the test system is NCI-H1792. As to the kind of experiment: Antiproliferative activity against human NCI-H1792 cells expressing wild-type SMARCA2 assessed as cell growth inhibition by measuring maximal efficacy measured after 7 days by WST-8 assay relative to control. The class given is functional. The note with it: time 7 day.
Assay [18] deals with NCI-H647. The assay is described as follows: Antiproliferative activity against human NCI-H647 cells expressing wild-type SMARCA2 assessed as cell growth inhibition measured after 7 days by WST-8 assay. The class given is functional. The following applies: NCI-H647, 168 h, time 7 day.
The test system of assay [19] is NCI-H838. As to the kind of experiment: Antiproliferative activity against SMARCA4-deficient human NCI-H838 cells assessed as cell growth inhibition measured after 7 days by WST-8 assay. The class given is functional. The following applies: NCI-H838, 168 h, time 7 day.
For assay [20], the system named is A549. The assay is described as follows: Antiproliferative activity against SMARCA4-deficient human A549 cells assessed as cell growth inhibition by measuring maximal efficacy measured after 7 days by WST-8 assay relative to control. The class given is functional. The note with it: time 7 day.
Assay [21] concerns NCI-H1975. The assay is described as follows: Antiproliferative activity against human NCI-H1975 cells expressing wild-type SMARCA2 assessed as cell growth inhibition by measuring maximal efficacy measured after 7 days by WST-8 assay relative to control. It is filed as functional. The note with it: time 7 day.
Assay [22] concerns NCI-H1792. The assay is described as follows: Antiproliferative activity against human NCI-H1792 cells expressing wild-type SMARCA2 assessed as cell growth inhibition measured after 7 days by WST-8 assay. It is filed as functional. The following applies: NCI-H1792, 168 h, time 7 day.
Assay [23] has as its system NCI-H1299. The assay is described as follows: Antiproliferative activity against SMARCA4-deficient human NCI-H1299 cells assessed as cell growth inhibition by measuring maximal efficacy measured after 7 days by WST-8 assay relative to control. The class given is functional. The note with it: time 7 day.
For assay [24], the system named is SK-MEL-28. As to the kind of experiment: Antiproliferative activity against human SK-MEL-28 cells expressing wild-type SMARCA2 assessed as cell growth inhibition measured after 7 days by WST-8 assay. The note with it: SK-MEL-28, 168 h, time 7 day. The class given is functional.
Assay [25] in a line: Antiproliferative activity against SMARCA4-deficient human NCI-H1568 cells assessed as cell growth inhibition by measuring maximal efficacy measured after 7 days by WST-8 assay relative to control. The following applies: time 7 day. It is filed as functional.
Assay [26] has as its system NCI-H1944. The assay is described as follows: Antiproliferative activity against SMARCA4-deficient human NCI-H1944 cells assessed as cell growth inhibition by measuring maximal efficacy measured after 7 days by WST-8 assay relative to control. The class given is functional. The note with it: time 7 day.
Assay [27] has as its system SK-MEL-5. The assay is described as follows: Antiproliferative activity against SMARCA4-deficient human SK-MEL-5 cells assessed as cell growth inhibition measured after 7 days by WST-8 assay. It is filed as functional. The note with it: SK-MEL-5, 168 h, time 7 day.
The test system of assay [28] is NCI-H1693. As to the kind of experiment: Antiproliferative activity against SMARCA4-deficient human NCI-H1693 cells assessed as cell growth inhibition measured after 7 days by WST-8 assay. It is filed as functional. The note with it: NCI-H1693, 168 h, time 7 day.
Assay [29] relates to NCI-H1793. As to the kind of experiment: Antiproliferative activity against SMARCA4-deficient human NCI-H1793 cells assessed as cell growth inhibition measured after 7 days by WST-8 assay. The class given is functional. The following applies: NCI-H1793, 168 h, time 7 day.
Assay [30] relates to NCI-H1299. As to the kind of experiment: Antiproliferative activity against SMARCA4-deficient human NCI-H1299 cells assessed as cell growth inhibition measured after 7 days by WST-8 assay. The class given is functional. The note with it: NCI-H1299, 168 h, time 7 day.

SWI/SNF-related matrix-associated actin-dependent regulator of chromatin subfamily A member 4, sequence (P51532 whole entry): as the sequence (P51532 whole entry, the tested form may be a part) above
SWI/SNF-related matrix-associated actin-dependent regulator of chromatin subfamily A member 2, sequence (P51531 whole entry): as the sequence (P51531 whole entry, looked up, the tested form may be a part) above

In assay [1], `CN1CCN(/C=C2\CCn3c2nc(=O)c2c(Cl)cccc23)CC1` registered a Kd of 417 nM.
On to `Cn1cc(-c2cc(-c3ccccc3O)nnc2N)cn1`, for which the Kd in assay [1] was 12.8 nM; in [2], 10 nM.
`Cc1ncsc1-c1ccc([C@H](C)NC(=O)[C@@H]2C[C@@H](O)CN2C(=O)[C@@H](NC(=O)CCCCCCCCCn2cc(-c3cc(-c4ccccc4O)nnc3N)cn2)C(C)(C)C)cc1`: the GI50 in assay [3] was determined as 2.5 nM; with A549 [4], 16 nM; with NCI-H1944 [7], 4.8 nM; with NCI-H1975 [16], 38 nM; in the assay with NCI-H647 [18], 76 nM; in the assay with NCI-H838 [19], 48 nM. Also, the GI50 in the assay on NCI-H1792 [22] came to 60 nM; in the assay with SK-MEL-28 [24] it was 32 nM; in the assay with SK-MEL-5 [27], 2.5 nM; with NCI-H1693 [28], 3.3 nM; in the assay on NCI-H1793 [29], 5 nM; with NCI-H1299 [30], 100 nM. Besides, the maximal response (Emax) in assay [5] was determined as 93%; in assay [10] it was 94%. Also, the Imax was 81% with NCI-H1693 [6]; 90% with SK-MEL-28 [9]; 91% with NCI-H838 [11]; 77% in the assay with NCI-H647 [12]; 95% with SK-MEL-5 [14]; 72% in the assay on NCI-H1793 [15]. Moreover, the Imax is given as 86% with NCI-H1792 [17]; 53% in the assay on A549 [20]; 63% in the assay with NCI-H1975 [21]; 81% in the assay on NCI-H1299 [23]; 82% in assay [25]; 87% in the assay with NCI-H1944 [26]. Moreover, the DC50 in [8] was found to be 8 nM; in assay [13] it was 2 nM.
